# Assay results reported in PubChem BioAssay AID1159612.
# Activity calls are given as the source filed them.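 Rule for the calls: active = compounds displacing the labeled ligand from RAR alpha with half-maximal potency at 10 µM or stronger; inactive = the rest.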
# Target: Retinoic acid receptor alpha (Homo sapiens) (UniProt P10276)
# Assay: ligand displacement at retinoic acid receptor alpha – biochemical, [3H]9-cis-retinoic acid, RARalpha, dose response (AID 1159612)
# Conditions: RARalpha radioligand binding, [3H]9-cis-RA displacement
# Retinoic acid receptor alpha (Homo sapiens), sequence (P10276 whole entry, looked up): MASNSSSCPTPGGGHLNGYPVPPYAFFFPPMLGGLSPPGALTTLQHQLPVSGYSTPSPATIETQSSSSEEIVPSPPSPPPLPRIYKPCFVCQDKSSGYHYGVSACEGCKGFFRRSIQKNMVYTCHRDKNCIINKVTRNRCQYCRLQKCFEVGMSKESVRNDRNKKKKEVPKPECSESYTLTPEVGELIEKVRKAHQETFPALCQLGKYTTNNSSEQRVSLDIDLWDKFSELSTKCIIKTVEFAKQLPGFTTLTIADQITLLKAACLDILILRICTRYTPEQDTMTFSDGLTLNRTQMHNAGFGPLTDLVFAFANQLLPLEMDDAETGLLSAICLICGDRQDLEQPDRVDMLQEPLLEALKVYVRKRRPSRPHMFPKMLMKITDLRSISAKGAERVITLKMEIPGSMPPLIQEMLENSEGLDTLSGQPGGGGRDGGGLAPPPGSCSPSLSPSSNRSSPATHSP
smiles,measurement,value
CC1=C[C@H](O)CC(C)(C)[C@H]1/C=C/C(C)=C/C=C/C(C)=C/C=C/C=C(C)/C=C/C=C(C)/C=C/C1=C(C)C[C@@H](O)CC1(C)C,IC50,inactive
